By EC50 is commonly meant the midpoint of the concentration-response curve. High values mean weaker potency, low ones greater potency.

This passage reports EC50 results from PMC3748964 (Regulatory peptides, 2013).

The target of this assay is MT1 melatonin receptor (Oryctolagus cuniculus, UniProt G1U149). The assay is classed as cell-based.
Chain of MT1 melatonin receptor (G1U149 1-312): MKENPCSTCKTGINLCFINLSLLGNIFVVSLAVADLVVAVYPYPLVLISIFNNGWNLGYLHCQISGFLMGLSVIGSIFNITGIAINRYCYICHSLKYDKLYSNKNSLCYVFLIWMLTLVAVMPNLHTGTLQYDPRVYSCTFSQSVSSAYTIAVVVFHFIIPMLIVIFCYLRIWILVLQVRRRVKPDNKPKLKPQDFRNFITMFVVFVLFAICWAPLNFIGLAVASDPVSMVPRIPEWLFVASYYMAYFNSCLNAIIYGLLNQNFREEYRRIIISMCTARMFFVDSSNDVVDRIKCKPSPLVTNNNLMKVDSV

`COc1ccc2[nH]cc(CCNC(C)=O)c2c1` [Melatonin] showed an EC50 of 4 ± 1 nM.
